Test: xn = mol fraction of the nth substance listed
Conditions: 101.3 kPa

CC[n+]1ccn(C)c1.O=S(=O)([N-]S(=O)(=O)C(F)(F)F)C(F)(F)F + CCCOCCO
x1 = 1
Conditions | speed of sound [m/s]
298.15 K | 1239.6
303.15 K | 1228.7
308.15 K | 1218.2
313.15 K | 1207.3
318.15 K | 1196.8

CCCOCCO + CC[n+]1ccn(C)c1.O=S(=O)([N-]S(=O)(=O)C(F)(F)F)C(F)(F)F
speed of sound [m/s]
Conditions | 298.15 K | 303.15 K | 308.15 K | 313.15 K | 318.15 K
x2 = 0.0479 | 1290.9 | 1275.1 | – | 1243.4 | 1228.5
x2 = 0.0964 | 1283.5 | – | 1253.7 | 1238.8 | –
x2 = 0.1514 | 1278 | 1264.2 | 1249.6 | 1234.5 | 1220.2
x2 = 0.2034 | 1273.8 | – | 1245.7 | – | –
x2 = 0.2917 | 1268 | 1255 | 1241.1 | – | –
x2 = 0.3883 | 1263.2 | 1250.6 | 1237 | 1223.4 | –
x2 = 0.4926 | 1258.1 | – | 1233.3 | 1220.8 | 1208.4
x2 = 0.5974 | 1252.8 | 1240.9 | 1229.2 | 1217.1 | 1205.2
x2 = 0.6927 | 1248 | 1236.4 | 1225 | 1214 | 1202.8
x2 = 0.7631 | – | 1232.8 | 1222 | 1211.3 | 1200.3
x2 = 0.8253 | 1241.9 | 1230.8 | 1220.5 | 1209.8 | 1199.5
x2 = 0.8945 | 1240.7 | – | 1219.2 | 1208.4 | 1198.4
x2 = 0.9518 | 1239.7 | 1229.2 | 1218.8 | 1207.7 | 1198

Reference: a compilation of properties of binary mixtures (doi:10.1021/acs.jced.0c00138)
